From patent US4076814A, “Preventive and curative compositions against mycoplasmosis” (Sankyo Company Limited, priority 1975, dated 1978) come the findings set out here.

The structures appear in SMILES notation. In brackets after ≈: the same amount, converted by molar mass.

Common to all, as to format: cell-based
One assay concerns Mycoplasma hyorhinis. The assay can be described thus: Antimicrobial test, conventional agar plate dilution method, Mycoplasma hyorhinis. The settings on record: Mycoplasma, read-out: Minimum Inhibitory Concentration, Mycoplasma hyorhinis. The source says:
(§1) ANTIMICROBIAL TEST AGAINST THREE STRAINS OF MYCOPLASMA
(§2) The test was effected by a conventional agar plate dilution method using the indicated strains of mycoplasma. The dithiocarbamic acid derivatives as shown below with Compound Nos. were employed in the test.

The subject of a further assay is Mycoplasma gallisepticum. Briefly: Antimicrobial test, conventional agar plate dilution method, Mycoplasma gallisepticum. The note with it: Mycoplasmoides gallisepticum, read-out: Minimum Inhibitory Concentration, Mycoplasma gallisepticum.
Source text: as §1, §2

The test system of the next assay is Mycoplasma pulmonis. The assay can be described thus: Antimicrobial test, conventional agar plate dilution method, Mycoplasma pulmonis. The settings on record: Mycoplasma, read-out: Minimum Inhibitory Concentration, Mycoplasma pulmonis.
Source text: as §1, §2

Turning to `CN(C)C(=S)SCC1CCCC1=O` (stereo not drawn) [Compound No. 1, 2-Oxocyclopentylmethyl dimethyldithiocarbamate], the MIC in the assay with Mycoplasma hyorhinis, with Mycoplasma gallisepticum and in the assay with Mycoplasma pulmonis was 0.05 µg/mL (≈ 0.23 µM) throughout.

For `CCN(CC)C(=S)SCC1CCCC1=O` (stereo not drawn) [Compound No. 2, 2-Oxocyclopentylmethyl diethyldithiocarbamate], the MIC in the assay on Mycoplasma hyorhinis, in the assay with Mycoplasma gallisepticum and in the assay on Mycoplasma pulmonis was 0.1 µg/mL (≈ 0.407 µM) in each case.

Take `O=C1CCCCC1CSC(=S)N1CCCCC1` (stereo not drawn) [Compound No. 9, 2-Oxocyclohexylmethyl 1-piperidinecarbodithioate]: the MIC in the assay with Mycoplasma hyorhinis turned out to be 0.2 µg/mL (≈ 0.737 µM); with Mycoplasma gallisepticum, 0.2 µg/mL (≈ 0.737 µM); in the assay on Mycoplasma pulmonis, 0.39 µg/mL (≈ 1.44 µM).

With `CC(=O)CCSC(=S)N1CCN(C)CC1` [Compound No. 92, 2-Acetylethyl 4-methyl-1-piperazinecarbodithioate], the MIC in the assay on Mycoplasma hyorhinis came out at 0.025 µg/mL (≈ 0.101 µM); in the assay on Mycoplasma gallisepticum it was 0.2 µg/mL (≈ 0.812 µM); in the assay on Mycoplasma pulmonis, 0.2 µg/mL (≈ 0.812 µM).

Regarding `CC(=O)C(C)CSC(=S)N(C)C` (stereo not drawn) [Compound No. 147, 2-Acetylpropyl dimethyldithiocarbamate], the MIC in the assay with Mycoplasma hyorhinis, in the assay on Mycoplasma gallisepticum and in the assay with Mycoplasma pulmonis was 0.05 µg/mL (≈ 0.243 µM) in each case.

Turning to `CCN(CC)C(=S)SCc1cc(C)c(O)cc1C(C)C` [Compound No. 202, 4-Hydroxy-2-isopropyl-5-methylbenzyl diethyldithyldithiocarbamate], the MIC in the assay with Mycoplasma hyorhinis, in the assay with Mycoplasma gallisepticum and in the assay on Mycoplasma pulmonis was 0.1 µg/mL (≈ 0.321 µM) in each case.

Turning to `O=C1CCCC1CSC(=S)N1CCOCC1` (stereo not drawn) [compound 3, 2-Oxocyclopentylmethyl 4-morpholinecarbodithioate], the MIC in the assay on Mycoplasma hyorhinis was 0.2 µg/mL (≈ 0.771 µM); with Mycoplasma gallisepticum, 0.2 µg/mL (≈ 0.771 µM); with Mycoplasma pulmonis it was 0.1 µg/mL (≈ 0.386 µM).

With `CN(C)C(=S)SCC1CCCCC1=O` (stereo not drawn) [compound 5, 2-Oxocyclohexylmethyl dimethyldithiocarbamate], the results for the MIC with Mycoplasma hyorhinis, in the assay on Mycoplasma gallisepticum and in the assay with Mycoplasma pulmonis were 0.05 µg/mL (≈ 0.216 µM), 0.05 µg/mL (≈ 0.216 µM) and 0.1 µg/mL (≈ 0.432 µM), respectively.

Regarding `CCN(CC)C(=S)SCC1CCCCC1=O` (stereo not drawn) [compound 6, 2-Oxocyclohexylmethyl diethyldithiocarbamate], the MIC came to 0.05 µg/mL (≈ 0.193 µM) in the assay with Mycoplasma hyorhinis, 0.1 µg/mL (≈ 0.385 µM) in the assay on Mycoplasma gallisepticum and 0.1 µg/mL (≈ 0.385 µM) in the assay on Mycoplasma pulmonis.

For the compound `CCCCN(C)C(=S)SCC1CCCCC1=O` (stereo not drawn) [compound 7, 2-Oxocyclohexylmethyl n-butylmethyldithiocarbamate], the MIC in the assay on Mycoplasma hyorhinis, in the assay on Mycoplasma gallisepticum and with Mycoplasma pulmonis was 0.2 µg/mL (≈ 0.731 µM) each time.

Take `CN(C)C(=S)SCCC(=O)c1ccccc1` [compound 23, 2-Benzoylethyl dimethyldithiocarbamate]: the values for the MIC in the assay on Mycoplasma hyorhinis, in the assay with Mycoplasma gallisepticum and in the assay on Mycoplasma pulmonis were 0.05 µg/mL (≈ 0.197 µM), 0.05 µg/mL (≈ 0.197 µM) and 0.025 µg/mL (≈ 0.0987 µM), respectively.

In the case of `O=C(CCSC(=S)N1CCCCC1)c1ccccc1` [compound 30, 2-Benzoylethyl 1-piperidinecarbodithioate], the MIC in the assay on Mycoplasma hyorhinis, in the assay with Mycoplasma gallisepticum and in the assay with Mycoplasma pulmonis was 0.2 µg/mL (≈ 0.682 µM) each time.

On to `O=C(CCSC(=S)N1CCCCCC1)c1ccccc1` [compound 31, 2-Benzoylethyl 1-hexamethyleneiminecarbodithioate], for which the MIC with Mycoplasma hyorhinis, with Mycoplasma gallisepticum and in the assay on Mycoplasma pulmonis was 0.2 µg/mL (≈ 0.65 µM) throughout.

`CN1CCN(C(=S)SCCC(=O)c2ccccc2)CC1.Cl` [compound 34, 2-Benzoylethyl 4-methyl-1-piperazinecarbodithioate hydrochloride]: the MIC in the assay with Mycoplasma hyorhinis, in the assay with Mycoplasma gallisepticum and in the assay on Mycoplasma pulmonis was 0.05 µg/mL in each case.

As for `O=C(CCSC(=S)N1CCOCC1)c1ccccc1O` [compound 42, 2-(o-Hydroxybenzoyl)ethyl 4-morpholinecarbodithioate], the figures for the MIC with Mycoplasma hyorhinis, with Mycoplasma gallisepticum and with Mycoplasma pulmonis were 0.39 µg/mL (≈ 1.25 µM), 0.2 µg/mL (≈ 0.642 µM) and 0.2 µg/mL (≈ 0.642 µM), respectively.

For `Cc1ccc(C(=O)CCSC(=S)N(C)C)cc1` [compound 55, 2-(p-Toluoyl)ethyl dimethyldithiocarbamate], the MIC in the assay on Mycoplasma hyorhinis came out at 0.2 µg/mL (≈ 0.748 µM); with Mycoplasma gallisepticum it was 0.2 µg/mL (≈ 0.748 µM); in the assay on Mycoplasma pulmonis, 0.39 µg/mL (≈ 1.46 µM).

For `Cc1cccc(C(=O)CCSC(=S)N(C)C)c1` [compound 56, 2-(m-Toluoyl)ethyl dimethyldithiocarbamate], the figures for the MIC with Mycoplasma hyorhinis, in the assay on Mycoplasma gallisepticum and in the assay with Mycoplasma pulmonis were 0.05 µg/mL (≈ 0.187 µM), 0.1 µg/mL (≈ 0.374 µM) and 0.1 µg/mL (≈ 0.374 µM), respectively.

Take `Cc1ccccc1C(=O)CCSC(=S)N(C)C` [compound 57, 2-(o-Toluoyl)ethyl dimethyldithiocarbamate]: the MIC came to 0.1 µg/mL (≈ 0.374 µM) in the assay with Mycoplasma hyorhinis, 0.1 µg/mL (≈ 0.374 µM) with Mycoplasma gallisepticum and 0.2 µg/mL (≈ 0.748 µM) in the assay with Mycoplasma pulmonis.

Consider `O=C(CCSC(=S)N1CCOCC1)c1ccccc1[N+](=O)[O-]` [compound 61, 2-(o-Nitrobenzoyl)ethyl 4-morpholinecarbodithioate], for which the results for the MIC with Mycoplasma hyorhinis, in the assay with Mycoplasma gallisepticum and in the assay on Mycoplasma pulmonis were 1.56 µg/mL (≈ 4.58 µM), 0.1 µg/mL (≈ 0.294 µM) and 0.39 µg/mL (≈ 1.15 µM), respectively.

In the case of `CN(C)C(=S)SCCC(=O)c1cccnc1` [compound 69], the MIC with Mycoplasma hyorhinis, in the assay on Mycoplasma gallisepticum and with Mycoplasma pulmonis was 0.1 µg/mL (≈ 0.393 µM) throughout.

For `CC(=O)CCSC(=S)N(C)C` [compound 78, 2-Acetylethyl dimethyldithiocarbamate], the MIC in the assay on Mycoplasma hyorhinis came to 0.025 µg/mL (≈ 0.131 µM); in the assay with Mycoplasma gallisepticum, 0.05 µg/mL (≈ 0.261 µM); in the assay on Mycoplasma pulmonis, 0.05 µg/mL (≈ 0.261 µM).

Turning to `CCCCN(C)C(=S)SCCC(C)=O` [compound 80, 2-Acethylethyl butylmethyldithiocarbamate], the MIC in the assay with Mycoplasma hyorhinis, in the assay on Mycoplasma gallisepticum and in the assay on Mycoplasma pulmonis was 0.1 µg/mL (≈ 0.428 µM) throughout.

As for `CC(=O)CCSC(=S)N(C)C1CCCCC1` [compound 81, 2-Acetylethyl cyclohexylmethyldithiocarbamate], the MIC in the assay on Mycoplasma hyorhinis, with Mycoplasma gallisepticum and in the assay with Mycoplasma pulmonis was 0.2 µg/mL (≈ 0.771 µM) in each case.

As to `CC(=O)CCSC(=S)N(C)Cc1ccccc1` [compound 82, 2-Acetylethyl benzylmethyldithiocarbamate], the MIC with Mycoplasma hyorhinis, in the assay with Mycoplasma gallisepticum and in the assay on Mycoplasma pulmonis was 0.2 µg/mL (≈ 0.748 µM) in each case.

As for `CC(=O)CCSC(=S)N1CCCCCC1` [compound 89, 2-Acetylethyl 1-hexamethyleneiminecarbodithioate], the MIC with Mycoplasma hyorhinis came to 0.1 µg/mL (≈ 0.407 µM); in the assay on Mycoplasma gallisepticum, 0.2 µg/mL (≈ 0.815 µM); with Mycoplasma pulmonis, 0.1 µg/mL (≈ 0.407 µM).

In the case of `CC(=O)CCSC(=S)N1CCOCC1` [compound 91, 2-Acetylethyl 4-morpholinecarbodithioate], the MIC came to 0.025 µg/mL (≈ 0.107 µM) with Mycoplasma hyorhinis, 0.2 µg/mL (≈ 0.857 µM) with Mycoplasma gallisepticum and 0.2 µg/mL (≈ 0.857 µM) in the assay on Mycoplasma pulmonis.

With `CC(=O)CCSC(=S)N1CCN(C)CC1.Cl` [compound 93, 2-Acetylethyl 4-methyl-1-piperazinecarbodithioate hydrochloride], the MIC is 0.05 µg/mL with Mycoplasma hyorhinis, 0.1 µg/mL in the assay on Mycoplasma gallisepticum and 0.1 µg/mL with Mycoplasma pulmonis.

As to `CCC(=O)CCSC(=S)N(CC)CC` [compound 99, 2-Propionylethyl diethyldithiocarbamate], the MIC with Mycoplasma hyorhinis, in the assay with Mycoplasma gallisepticum and in the assay on Mycoplasma pulmonis was 0.05 µg/mL (≈ 0.214 µM) each time.

On to `CCC(=O)CCSC(=S)N1CCOCC1` [compound 101, 2-Propionylethyl 4-morphonlinecarbodithioate], for which the MIC in the assay with Mycoplasma hyorhinis, with Mycoplasma gallisepticum and with Mycoplasma pulmonis was 0.1 µg/mL (≈ 0.404 µM) each time.

Consider `CC(C)C(=O)CCSC(=S)N(C)C` [compound 104, 2-Isobutyrylethyl dimethyldithiocarbamate], for which the MIC in the assay on Mycoplasma hyorhinis, in the assay on Mycoplasma gallisepticum and with Mycoplasma pulmonis was 0.2 µg/mL (≈ 0.912 µM) each time.
